Results as given in PubChem BioAssay (NCI).
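48-hour exposure; five concentrations; linearly interpolated endpoints. Here, GI50 denotes the concentration required for 50% inhibition of growth. TGI: concentration producing complete growth inhibition.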 Where a SMILES comes first, the peptide text is derived from it.

Legend:
Assay in all cases: NCI tumour cell line growth inhibition, 48 h
[1] = tested on: HOP-62 NSCLC
[2] = tested on: MDA-MB-435
[3] = tested on: UACC-62 melanoma
[4] = tested on: EKVX NSCLC
[5] = tested on: HS 578T breast
[6] = tested on: LOX IMVI melanoma
[7] = tested on: OVCAR-5 ovarian
[8] = tested on: MCF7 breast
[9] = tested on: 786-0 renal
[10] = tested on: CCRF-CEM leukemia
[11] = tested on: SK-MEL-2 melanoma
[12] = tested on: TK-10 renal
[13] = tested on: HT29 colon
[14] = tested on: MALME-3M melanoma
[15] = tested on: PC-3 prostate
[16] = tested on: SNB-75 CNS
[17] = tested on: NCI-H460 lung
[18] = tested on: UO-31 renal
[19] = tested on: SNB-19 CNS
[20] = tested on: SK-MEL-5 melanoma
[21] = tested on: A549 NSCLC
[22] = tested on: HCT-116 colon
[23] = tested on: MOLT-4 leukemia
[24] = tested on: KM12 colon
[25] = tested on: SR leukemia
[26] = tested on: HCC-2998 colon
[27] = tested on: M14 melanoma
[28] = tested on: SF-268 CNS
[29] = tested on: SW-620 colon
[30] = tested on: T-47D breast
[31] = tested on: A498 renal
[32] = tested on: MDA-MB-231 breast
[33] = tested on: UACC-257 melanoma
[34] = tested on: SK-OV-3 ovarian
[35] = tested on: ACHN renal
[36] = tested on: HOP-92 NSCLC
[37] = tested on: NCI/ADR-RES ovarian
[38] = tested on: BT-549 breast
[39] = tested on: OVCAR-3 ovarian
[40] = tested on: NCI-H226 lung
[41] = tested on: OVCAR-8 ovarian
[42] = tested on: SK-MEL-28 melanoma
[43] = tested on: COLO 205 colon
[44] = tested on: RPMI-8226 leukemia
[45] = tested on: OVCAR-4 ovarian
[46] = tested on: NCI-H522 lung
[47] = tested on: HCT-15 colon
[48] = tested on: U251 CNS
[49] = tested on: DU-145 prostate
[50] = tested on: K-562 leukemia
[51] = tested on: SN12C renal
[52] = tested on: CAKI-1 renal
[53] = tested on: NCI-H23 lung
[54] = tested on: RXF 393 renal
[55] = tested on: HL-60(TB) leukemia
[56] = tested on: IGROV1 ovarian
[57] = tested on: SF-539 CNS
[58] = tested on: SF-295 CNS

`CCC(C)C1NC(=O)C(CCCCN)NC(=O)C(CCCCN)NC(=O)C(CC(C)C)NC(=O)C(CCCCN)NC(=O)C(C(C)CC)NC(=O)C(C(C)C)NC(=O)C(C(C)CC)NC(=O)C(CCCCN)NC(=O)C(CCCCN)NC(=O)C(C)NC(=O)C(CCCCN)NC(=O)C(CC(C)C)NC1=O` (stereo unspecified) (cyclo(AKKIVIKLKKILK); configuration not given here) showed a GI50 [1] of 1760 nM, a TGI [1] of 3970 nM and a GI50 [2] of 1770 nM. The TGI [2] was 3800 nM, the GI50 [3] was 1270 nM and the TGI [3] was 2940 nM. The GI50 [4] was 1330 nM, the TGI [4] was 6000 nM and the GI50 [5] was 2000 nM. It also gave a TGI [5] of 5660 nM, a GI50 [6] of 1730 nM and a TGI [6] of 3200 nM. It also gave a GI50 [7] of 2330 nM, a TGI [7] of 8180 nM and a GI50 [8] of 1870 nM. It also gave a TGI [8] of 5980 nM, a GI50 [9] of 1800 nM and a TGI [9] of 3640 nM. The GI50 [10] was 2150 nM, the TGI [10] was 9300 nM and the GI50 [11] was 2060 nM. The TGI [11] was 4880 nM, the GI50 [12] was 1870 nM and the TGI [12] was 4630 nM. It also gave a GI50 [13] of 2930 nM, a TGI [13] of 10800 nM and a GI50 [14] of 1450 nM. It also gave a TGI [14] of 3300 nM, a GI50 [15] of 779 nM and a TGI [15] of 8520 nM. For the same compound, the GI50 [16] was 1720 nM, the TGI [16] was 4350 nM and the GI50 [17] was 1850 nM. It also gave a TGI [17] of 4280 nM, a GI50 [18] of 1380 nM and a TGI [18] of 2740 nM. It also gave a GI50 [19] of 2930 nM, a TGI [19] of 14000 nM and a GI50 [20] of 1010 nM. For the same compound, the TGI [20] was 2190 nM, the GI50 [21] was 2260 nM and the TGI [21] was 9640 nM. The GI50 [22] was 1460 nM, the TGI [22] was 3070 nM and the GI50 [23] was 1700 nM. The TGI [23] was 5290 nM, the GI50 [24] was 2550 nM and the TGI [24] was 8090 nM. The GI50 [25] was 1860 nM, the TGI [25] was 5020 nM and the GI50 [26] was 2650 nM. The TGI [26] was 8520 nM, the GI50 [27] was 1600 nM and the TGI [27] was 3460 nM. It also gave a GI50 [28] of 2590 nM, a TGI [28] of 11300 nM and a GI50 [29] of 1750 nM. The TGI [29] was 3590 nM, the GI50 [30] was 1690 nM and the TGI [30] was 6700 nM. The GI50 [31] was 1660 nM, the TGI [31] was 3840 nM and the GI50 [32] was 1720 nM. The TGI [32] was 4250 nM, the GI50 [33] was 2420 nM and the TGI [33] was 7570 nM. The GI50 [34] was 2090 nM, the TGI [34] was 5880 nM and the GI50 [35] was 2360 nM. It also gave a TGI [35] of 6840 nM, a GI50 [36] of 1270 nM and a TGI [36] of 3240 nM. For the same compound, the GI50 [37] was 1070 nM, the TGI [37] was 5610 nM and the GI50 [38] was 1790 nM. It also gave a TGI [38] of 3960 nM, a GI50 [39] of 1620 nM and a TGI [39] of 3630 nM. It also gave a GI50 [40] of 1210 nM, a TGI [40] of 3370 nM and a GI50 [41] of 1730 nM. For the same compound, the TGI [41] was 6400 nM, the GI50 [42] was 1970 nM and the TGI [42] was 4610 nM. For the same compound, the GI50 [43] was 1740 nM, the TGI [43] was 3650 nM and the GI50 [44] was 1110 nM. The TGI [44] was 3740 nM, the GI50 [45] was 1280 nM and the TGI [45] was 13400 nM. For the same compound, the GI50 [46] was 1740 nM, the TGI [46] was 4700 nM and the GI50 [47] was 1600 nM. It also gave a TGI [47] of 3270 nM, a GI50 [48] of 1590 nM and a TGI [48] of 3250 nM. For the same compound, the GI50 [49] was 2990 nM, the TGI [49] was 10700 nM and the GI50 [50] was 1310 nM. The TGI [50] was 5470 nM, the GI50 [51] was 1940 nM and the TGI [51] was 6460 nM. For the same compound, the GI50 [52] was 1560 nM, the TGI [52] was 3760 nM and the GI50 [53] was 704 nM. For the same compound, the TGI [53] was 4450 nM, the GI50 [54] was 1490 nM and the TGI [54] was 3010 nM. The GI50 [55] was 2420 nM, the TGI [55] was 6930 nM and the GI50 [56] was 1970 nM. The TGI [56] was 6180 nM, the GI50 [57] was 2050 nM and the TGI [57] was 4380 nM. The GI50 [58] was 1140 nM and the TGI [58] was 2520 nM.
